The record followed here is patent US20220160901A1, “Stimuli-Responsive Compositions, Imaging Systems, and Methods for Using the Same for Biomedical Applications” (The Regents of the University of California, priority 2019, published 2022).

This test in a line: T1 values measured using NMR. Also on record: unit not given here.

Turning to Fe(Me-bik)3](BF4)2.25H2O, the “T1 at 23° C.” value runs as follows: (1 mg/mL) 2.9433; (2 mg/mL) 2.8944; (4 mg/mL) 2.7392; (8 mg/mL) 2.7413. Also, the “T1 at 40° C.” value is given as 4.2093 (1 mg/mL), 3.9614 (2 mg/mL), 3.4784 (4 mg/mL) and 3.434 (8 mg/mL). The “T1 at 60° C.” value was determined as 5.3784 (1 mg/mL), 4.9954 (2 mg/mL), 4.2761 (4 mg/mL) and 4.172 (8 mg/mL).
